Biological target: T1, Enhanced ProLabel (ePL)-Tagged CAMKK2 (Homo sapiens, UniProt Q96RR4)
T1 construct: expressed in transfected cells
Assay: Degradation of stably expressed ePL-tagged CAMKK2 in 293T cells (InCELL Hunter luminescence, 24 h)
Format: cell-based
Settings: minimum % protein remaining; ePL-CAMKK2 293T cells, 24 h incubation
Protocol: Cells were dispensed into 384 well plates pre-spotted with serial diluted test compounds. After 24 h incubation, degradation was terminated by the addition of DiscoverX InCELL Hunter Detection reagent.
Assay plates were incubated at 37° C. with 5% CO2 for 24 hours. Plates were kept at room temperature for 30 min, after which 25 μL of the InCELL Hunter Detection Reagent Working Solution was added (catalog number 96-0002, DiscoverX, Fremont, CA). After plates were incubated at room temperature for 30 min, protected from light, luminescence was read on a PHERAstar reader (BMG LABTECH, Cary, N.C.). Data was normalized and fit using Activity Base (IDBS, Alameda, Calif.) as described below.
A Four Parameter Logistic Model (Sigmoidal Dose-Response Model, equation 1) was used to determine the compound's EC50 and degradation Ymin.
where C is CAMKK2 degradation potency EC50, D is the […], A is the lower limit reported as Ymin. Ymin and EC50 were used to characterize compound-mediated CAMKK2 degradation efficiency.

T1 sequence (Q96RR4 whole entry): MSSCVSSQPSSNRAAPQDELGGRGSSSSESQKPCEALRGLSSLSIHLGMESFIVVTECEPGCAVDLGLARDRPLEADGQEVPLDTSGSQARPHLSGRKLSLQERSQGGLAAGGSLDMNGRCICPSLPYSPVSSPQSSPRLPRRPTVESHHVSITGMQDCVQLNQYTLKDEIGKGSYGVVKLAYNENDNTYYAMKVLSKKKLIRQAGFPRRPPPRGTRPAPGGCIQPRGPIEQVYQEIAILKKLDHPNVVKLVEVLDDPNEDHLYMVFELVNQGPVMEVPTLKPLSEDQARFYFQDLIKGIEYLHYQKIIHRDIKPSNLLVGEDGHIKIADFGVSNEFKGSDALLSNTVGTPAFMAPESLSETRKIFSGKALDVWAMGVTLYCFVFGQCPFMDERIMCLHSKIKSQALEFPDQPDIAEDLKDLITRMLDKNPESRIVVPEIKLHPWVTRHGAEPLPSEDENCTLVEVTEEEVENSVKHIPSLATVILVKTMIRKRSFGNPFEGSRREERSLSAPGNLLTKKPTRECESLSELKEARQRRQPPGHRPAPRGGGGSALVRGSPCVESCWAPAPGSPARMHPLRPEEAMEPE

In order of falling “(ePL) HEK293 24 h CAMKK2 Ymin(%)” value:
1. Cc1ncsc1-c1ccc(CNC(=O)[C@@H]2C[C@@H](O)CN2C(=O)[C@@H](NC(=O)CCCCCCCCCCCOc2ccc3c(-c4ccc(C(=O)O)c(C5CCCC5)c4)ncnc3c2)C(C)(C)C)cc1 [Compound 1, 2-cyclopentyl-4-[7-[12-[[(1S)-1-[(2S,4R)-4-hydroxy-2-[[4-(4-methylthiazol-5-yl)phenyl]methylcarbamoyl]pyrrolidine-1-carbonyl]-2,2-dimethyl-propyl]amino]-12-oxo-dodecoxy]quinazolin-4-yl]benzoic acid]  43%
2. Cc1ncsc1-c1ccc(CNC(=O)[C@@H]2C[C@@H](O)CN2C(=O)[C@@H](NC(=O)CCCCCCOc2ccc3c(-c4ccc(C(=O)O)c(C5CCCC5)c4)ncnc3c2)C(C)(C)C)cc1 (racemic) [Compound 6, 2-cyclopentyl-4-[7-[7-oxo-7-[[rac-(1S)-2,2-dimethyl-1-[rac-(2S,4R)-4-hydroxy-2-[[4-(4-methylthiazol-5-yl)phenyl]methylcarbamoyl]pyrrolidine-1-carbonyl]propyl]amino]heptoxy]quinazolin-4-yl]benzoic acid]  42%
3. Cc1ncsc1-c1ccc(CNC(=O)[C@@H]2C[C@@H](O)CN2C(=O)[C@@H](NC(=O)CCCCCCCCCCOc2ccc3c(-c4ccc(C(=O)O)c(C5CCCC5)c4)ncnc3c2)C(C)(C)C)cc1 (racemic) [Compound 2, 2-cyclopentyl-4-[7-[11-oxo-11-[[rac-(1S)-2,2-dimethyl-1-[rac-(2S,4R)-4-hydroxy-2-[[4-(4-methylthiazol-5-yl)phenyl]methylcarbamoyl]pyrrolidine-1-carbonyl]propyl]amino]undecoxy]quinazolin-4-yl]benzoic acid]  37%
4. Cc1ncsc1-c1ccc(CNC(=O)[C@@H]2C[C@@H](O)CN2C(=O)[C@@H](NC(=O)CCCCCCCOc2ccc3c(-c4ccc(C(=O)O)c(C5CCCC5)c4)ncnc3c2)C(C)(C)C)cc1 [Compound 5]  32%
5. Cc1ncsc1-c1ccc(CNC(=O)[C@@H]2C[C@@H](O)CN2C(=O)[C@@H](NC(=O)CCCCCCCCOc2ccc3c(-c4ccc(C(=O)O)c(C5CCCC5)c4)ncnc3c2)C(C)(C)C)cc1 [Compound 4, 2-cyclopentyl-4-[7-[9-[[(1S)-1-[(2S,4R)-4-hydroxy-2-[[4-(4-methylthiazol-5-yl)phenyl]methylcarbamoyl]pyrrolidine-1-carbonyl]-2,2-dimethyl-propyl]amino]-9-oxo-nonoxy]quinazolin-4-yl]benzoic acid]  19%
